This note sets out measurements from US6475502B1, “Kits containing cyanoacrylate compositions comprising an antimicrobial agent” (Flowers Park Ltd., priority 1997, dated 2002).

The nature of data set [1]: Solubility or suspendability of the antimicrobial agent in the n-butyl cyanoacrylate composition.
Data set [2] in a line: Premature polymerization (gel formation) of the cyanoacrylate composition after mixing with the antimicrobial agent. The format is physicochemical. The conditions noted are these: for Period over which the composition polymerized after mixing: 5 weight percent agent based on total weight of composition; for Compatibility with the cyanoacrylate composition: overall conclusion of Example 1, for tetracycline hydrochloride and hexachlorophene when mixed immediately prior to use.

Structures can show the parent of a compound that is named as a salt. Where two headings read alike, the source gives them in different places.

Take `CC[C@H]1OC(=O)[C@H](C)[C@@H](O[C@H]2C[C@@](C)(OC)[C@@H](O)[C@H](C)O2)[C@H](C)[C@@H](O[C@@H]2O[C@H](C)C[C@H](N(C)C)[C@H]2O)[C@](C)(O)C[C@@H](C)C(=O)[C@H](C)[C@@H](O)[C@]1(C)O` [Erythromycin, erythromycin]: the Soluble entry in data set [1] is on record as “no, gelled^1”.

For `O=C([O-])c1ccccc1-c1c2cc(Br)c(=O)cc-2oc2[c]([Hg+])c([O-])c(Br)cc12.[Na+].[Na+].[OH-]` [Merbromin, merbromin], the Soluble entry in data set [1] (in monomeric n-butyl cyanoacrylate with 100 ppm sulfur dioxide and 20 weight percent dioctyl phthalate, agent conc. per column Conc. (~20% iodine, 10% PVP-I2, 5% others)) is “no, gelled^1”. For `II` [elemental iodine (I2), elemental iodine], in data set [1], the Soluble result was “partially”. `Oc1c(Cl)cc(Cl)c(Cl)c1Cc1c(O)c(Cl)cc(Cl)c1Cl` [hexachlorophene]: in data set [2], the “Period over which the composition polymerized after mixing” value is roughly 48 h and the “Compatibility with the cyanoacrylate composition” value is given as “compatible”. For `CN(C)[C@@H]1C(O)=C(C(N)=O)C(=O)[C@@]2(O)C(O)=C3C(=O)c4c(O)cccc4[C@@](C)(O)[C@H]3C[C@@H]12` [tetracycline hydrochloride], in data set [2], the “Period over which the composition polymerized after mixing” value is roughly 48 h and the “Compatibility with the cyanoacrylate composition” value is “compatible”.
